According to patent US20240408053A1, “ENTERITIS-SUPPRESSING COMPOSITION” (KOBE GAKUIN EDUCATIONAL FOUNDATION, priority 2021, published 2024):

How the values were obtained:
Format in all cases: in vivo, mice
CYP2E1 = experiment: Western blotting of CYP2E1 in colon tissue; conditions: group ES: 2.0% v/v ethanol diet + 2.5 mg sesaminol per day oral, 2 weeks, vs group E
From the text: Chronic consumption of an excessive amount of ethanol has been reported to increase CYP2E1 and iNOS levels and cause ethanol-induced oxidative stress in the liver and other tissues. The nuclear factor erythroid 2-related factor 2/heme oxygenase-1 (Nrf2/HO-1) system has also been reported to be widely involved in the protection of cells from oxidative damage. Therefore, the expression levels of these proteins (CYP2E1, iNOS, and HO-1) in mouse colon tissue in the four groups (groups C, S, E, and ES) were examined by western blotting (WB).
A colon tissue sample (100 mg) was homogenized in 1 mL of an M-PER mammalian protein extraction reagent (Pierce) containing a diluent of a protease inhibitor cocktail (Nacalai Tesque, Inc.), and the resulting homogenate was centrifuged at 20,000× g at 4° C. for 15 minutes. The protein concentration of the supernatant was measured with a protein assay reagent (Bio-Rad Laboratories, Inc.), and equal amounts of proteins were subjected to SDS-PAGE. Electrophoresed proteins in the gel were transferred to a PVDF membrane, and the membrane was immersed in a blocking reagent (room temperature, overnight). The primary antibody (rabbit polyclonal antibody) was then reacted. […] The band intensities were quantified with ImageJ.

occludin = experiment: Western blotting of occludin in colon tissue; conditions: group ES: 2.0% v/v ethanol diet + 2.5 mg sesaminol per day oral, 2 weeks, vs group E; lower than group C
From the text: (§1) Acetaldehyde, which accumulates during ethanol metabolism, is known to disrupt intestinal tight junctions (TJs) via dissociation of colonic epithelium TJ proteins (ZO-1, occludin, and claudin-1) from the cytoskeleton. […] Therefore, whether oral administration of sesaminol would affect ethanol-induced intestinal barrier dysfunction was examined by analyzing the expression levels of colonic epithelial TJ proteins and the plasma LPS level in the mice in the four groups (groups C, S, E, and ES).
(§2) WB was performed in the same manner as in Example 4 above. The following primary antibodies were used. • Anti-mouse zonula occludens-1 protein (ZO-1) rabbit polyclonal antibody • Anti-mouse occludin rabbit polyclonal antibody • Anti-mouse claudin-1 rabbit polyclonal antibody

claudin-1 [1] = experiment: Western blotting of claudin-1 in colon tissue; conditions: group ES: 2.0% v/v ethanol diet + 2.5 mg sesaminol per day oral, 2 weeks, vs group E; lower than group C
From the text: as §1, §2

[2] = TG amount in the liver, 4 weeks; conditions: mean ±SD
Protocol: The liver function and plasma lipid level in the mice in each group were examined by measuring the percentage of the liver weight relative to the body weight, the triglyceride (TG) concentration in the liver, the aspartate aminotransferase (AST) activity in the plasma, the alanine aminotransferase (ALT) activity in the plasma, and the TG concentration in the plasma of the mice in each group.
Each liver was homogenized at 4° C., and TG was extracted according to the product protocol of a reagent kit for TG extraction from tissue (Lipid Droplet Isolation Kit, produced by Cell Biolabs, Inc.). The amounts of TG and protein in each extracted sample were quantified according to the product protocol of each measuring reagent and converted to the TG amount (mg) per protein (g) for evaluation.

[3] = tested on: ethanol-induced lesion in mouse liver; experiment: HE or Oil Red O staining of liver sections (ethanol-induced alcoholic steatohepatitis); conditions: group ES: 2.0% v/v ethanol diet + 2.5 mg sesaminol per day oral, 4 weeks; group E significant increase
From the text: Additionally, liver sections of the mice in each group (groups C, E, S, and ES) were stained with HE or Oil Red 0, and observed under a microscope.
Liver tissue samples were each fixed in a 10% v/v neutral formaldehyde solution overnight at room temperature and paraffin-embedded. The liver tissue sections were then stained with HE reagent, and frozen tissue sections were stained with Oil Red O reagent. Each stained specimen was observed under a microscope and subjected to image analysis.

[4] = tested on: ethanol-induced lesions in mouse colon; experiment: Microscopic evaluation of colon tissue (HE, TB, PAS, MUC2 staining), 4 weeks; conditions: group ES: 2.0% v/v ethanol diet + 2.5 mg sesaminol per day oral
Protocol: In order to verify the longer-term effect of oral administration of sesaminol on ethanol-induced oxidative stress in mouse colon, the colonic epithelium of the mice in each group (groups C, E, S, and ES) described in Example 7 was HE-stained, TB-stained, and periodic-acid-Schiff (PAS)-stained and observed under a microscope (FIGS. 10(A),(B), and (C)). Immunostaining with MUC2 polyclonal antibody was then performed (FIG. 10(D)). HE staining, TB staining, and immunostaining with MUC2 polyclonal antibody were performed in the same manner as in Example 2.
Colon tissue samples were each fixed in a 10% v/v neutral formaldehyde solution overnight at room temperature and paraffin-embedded. The colon tissue sections were then stained with PAS staining reagent for the detection of goblet cells. Each stained specimen was observed under a microscope and subjected to image analysis.

claudin-1 [5] = experiment: Immunofluorescence staining of Claudin-1 in colon tissue, 4 weeks; conditions: group ES: 2.0% v/v ethanol diet + 2.5 mg sesaminol per day oral, group E significant decrease
Protocol: Next, in order to verify the longer-term effect of oral administration of sesaminol on ethanol-induced intestinal tight junction (TJ) dysfunction and leaky gut, histological analysis of colonic epithelial TJ proteins (ZO-1, Occludin, and Claudin-1) and analysis of the plasma LPS level were performed using the mice in each group (groups C, S, E, and ES) described in Example 7. Histological analysis was performed by immunofluorescence staining with anti-ZO-1, anti-Occludin, and anti-Claudin-1 antibodies, followed by observation under a fluorescence microscope. The Plasma LPS level was measured according to the method described in Example 6.

[6] = Amount of short-chain fatty acids in mouse feces (GC-FID); conditions: 4 weeks
Protocol: Short-chain fatty acids are metabolites of intestinal bacteria. The amounts of short-chain fatty acids (acetic acid, propionic acid, and butyric acid) in feces of the mice in each group (groups C, E, S, and ES) were measured.
The amounts of short-chain fatty acids in the mouse feces were measured by outsourcing to TechnoSuruga Laboratory Co., Ltd.
Immediately after collection, mouse feces was treated with liquid nitrogen and stored at −80° C. While the fecal samples were frozen, an amount of 100 mg was crushed with beads and formed into a powder, and components extracted with ethyl acetate treatment were used as detection samples. For the measurement, a gas-chromatography-flame ionization detector system (Agilent 7890B GC, produced by Agilent technologies) was used, and the concentration of each short-chain fatty acid was calculated by comparison with the amount of standard substance.

[7] = group ES: 2.0% v/v ethanol diet + 2.5 mg sesaminol per day oral

Oc1cc2c(cc1C1OCC3C(c4ccc5c(c4)OCO5)OCC13)OCO2 (stereo not drawn) [Sesaminol]
CYP2E1 expression level (CYP2E1): significantly lower than that in group E
expression level of occludin (occludin): significantly higher than those in group E
expression level of claudin-1 (claudin-1 [1]): significantly higher than those in group E
Liver TG ([2]; EtOH (2.0% v/v) + Sesaminol group ES): 51.8 ± 9.5 mg/g of protein
Liver TG ([2]; Sesaminol (2.5 mg/d) group S): 38.1 ± 12.4 mg/g of protein
lipid droplets in Oil Red O-stained liver tissue [3]: decrease in lipid droplets
histological image of colon tissue (epithelium atrophy, goblet cells, mucus-secreting cells) [4]: tendency of returning to the histological image of group C
protein level of Claudin-1 in colon tissue (fluorescence microscope observation) (claudin-1 [5]): improvement in all of those levels
acetic acid in the feces [6, 7]: significant increase
propionic acid in the feces [6, 7]: significant increase
amount of butyric acid in the feces ([6]; group ES: 2.0% v/v ethanol diet + 2.5 mg sesaminol per day oral, group E significant decrease): increase in the amount of butyric acid to the same level as that in group C
amount of short-chain fatty acids (acetic acid, propionic acid, butyric acid) in the feces ([6]; group S: 2.5 mg sesaminol per day oral, no ethanol, vs all other groups): significant increase in the amount of short-chain fatty acids in the feces compared with all the other groups
